Laboratory results: patent publication US20260224716A1, “PTH ANALOGS FOR THE TREATMENT OF HYPOPARATHYROIDISM” (priority 2020, published 2026)
*1 amine or outer side, *2 acyl side, *3 side chain or, on linkers, in order; H or OH if unused. Where a SMILES comes first, the peptide text is derived from it. Side-chain parts run from the residue outwards. The star is where a group is joined. C18 diacid = O=C(O)CCCCCCCCCCCCCCCCC(=O)*; γGlu = O=C(O)[C@H](CCC(=O)[*:2])N[*:1]; AEEA = NCCOCCOCC(=O)O

Columns and labels:
[1] = Cleavage half-life / conversion of PTH prodrugs in PBS pH 7.4, 37° C. by LC-MS; type: physicochemical
Experimental: The resulting solution was incubated at 37° C. Aliquots were taken at designed time points and analyzed by LC-MS. […] Flow rate of 1 mL/min and a gradient of 10%-80% acetonitrile in water, with 0.1% trifluoroacetic acid over 10 min. […] The concentration of prodrug and drug were determined by their relative peak areas. The […] dissociation rate constant of the prodrug was determined by plotting the logarithm in the concentration of the prodrug at various time points.

[2] = molecular target: T1, PTHR1 (Homo sapiens, UniProt Q03431); assay: cAMP Hunter Teriparatide Bioassay (CHO-K1 PTHR1 cells); type: cell-based
T1 construct: host or cells: CHO-K1
T1 sequence (Q03431 27-593): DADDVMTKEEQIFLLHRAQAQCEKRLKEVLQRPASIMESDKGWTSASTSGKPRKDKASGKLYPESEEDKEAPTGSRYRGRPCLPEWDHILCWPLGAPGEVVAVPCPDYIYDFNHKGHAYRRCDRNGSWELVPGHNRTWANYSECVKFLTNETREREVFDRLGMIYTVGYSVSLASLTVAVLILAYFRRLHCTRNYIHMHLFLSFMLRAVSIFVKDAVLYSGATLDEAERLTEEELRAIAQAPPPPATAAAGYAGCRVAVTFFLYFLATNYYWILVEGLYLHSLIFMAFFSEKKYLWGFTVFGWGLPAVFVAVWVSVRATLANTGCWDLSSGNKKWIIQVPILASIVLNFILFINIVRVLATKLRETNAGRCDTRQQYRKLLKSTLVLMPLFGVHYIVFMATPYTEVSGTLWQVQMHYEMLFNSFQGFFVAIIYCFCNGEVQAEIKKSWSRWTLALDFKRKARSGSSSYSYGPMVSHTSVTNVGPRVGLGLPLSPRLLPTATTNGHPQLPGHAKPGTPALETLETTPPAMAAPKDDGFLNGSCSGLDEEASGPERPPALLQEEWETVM
Experimental: The assessment of the bioactivity of a prodrug relative to its drug form was conducted in a proprietary commercial assay as contracted with Eurofins-Discover Rx Corporation win a cAMP Hunter® Teriparatide Bioassay (95-0118Y2). An 11-point dose curve in agonist mode was conducted for each individual peptide or incubation condition. Every sample was run at each dose in triplicate.
An 11-point dose curve in agonist mode was conducted for each individual peptide or incubation condition. Every sample was run at each dose in triplicate.
An 11-point dose curve in agonist mode was conducted for each individual peptide at each concentration. Every sample was run at each dose in triplicate.

CC[C@H](C)[C@H](NC(=O)[C@H](CCC(=O)O)NC(=O)[C@H](CO)NC(=O)[C@@H](NC(=O)[C@H](CO)NC(=O)CN(C(=O)[C@H](N)CCCCNC(=O)CC[C@H](NC(=O)CCCCCCCCCCCCCCCCC(=O)O)C(=O)O)C(C)C)C(C)C)C(=O)N[C@@H](CCC(N)=O)C(=O)N[C@@H](CC(C)C)C(=O)N[C@@H](CCSC)C(=O)N[C@@H](Cc1c[nH]cn1)C(=O)N[C@@H](CC(N)=O)C(=O)N[C@@H](CC(C)C)C(=O)NCC(=O)N[C@@H](CCCCN)C(=O)N[C@@H](Cc1c[nH]cn1)C(=O)N[C@@H](CC(C)C)C(=O)N[C@@H](CC(N)=O)C(=O)N[C@@H](CO)C(=O)N[C@@H](CCSC)C(=O)N[C@@H](CCC(=O)O)C(=O)N[C@@H](CCCNC(=N)N)C(=O)N[C@H](C(=O)N[C@@H](CCC(=O)O)C(=O)N[C@@H](Cc1c[nH]c2ccccc12)C(=O)N[C@@H](CC(C)C)C(=O)N[C@@H](CCCNC(=N)N)C(=O)N[C@@H](CCCCN)C(=O)N[C@@H](CCCCN)C(=O)N[C@@H](CC(C)C)C(=O)N[C@@H](CCC(N)=O)C(=O)N[C@@H](CC(=O)O)C(=O)N[C@H](C(=O)N[C@@H](Cc1c[nH]cn1)C(=O)N[C@@H](CC(N)=O)C(=O)N[C@@H](Cc1ccccc1)C(=O)O)C(C)C)C(C)C [SEQ ID NO: 46]
half-life ([1]; PBS buffer, dipeptide cleavage from PTH prodrug, PBS pH 7.4, 37° C., read-out: Half life (converted)): 47 h
Half life, fold faster (vs SEQ ID NO: 45) ([1]; comparator SEQ ID NO: 45): 1.9 faster than Sar

CC[C@H](C)[C@H](NC(=O)[C@H](CCC(=O)O)NC(=O)[C@H](CO)NC(=O)[C@@H](NC(=O)[C@@H](N)CO)C(C)C)C(=O)N[C@@H](CCC(N)=O)C(=O)N[C@@H](CC(C)C)C(=O)N[C@@H](CCSC)C(=O)N[C@@H](Cc1c[nH]cn1)C(=O)N[C@@H](CC(N)=O)C(=O)N[C@@H](CC(C)C)C(=O)NCC(=O)N[C@@H](CCCCN)C(=O)N[C@@H](Cc1c[nH]cn1)C(=O)N[C@@H](CC(C)C)C(=O)N[C@@H](CC(N)=O)C(=O)N[C@@H](CO)C(=O)N[C@@H](CC[S+](C)[O-])C(=O)N[C@@H](CCC(=O)O)C(=O)N[C@@H](CCCNC(=N)N)C(=O)N[C@H](C(=O)N[C@@H](CCC(=O)O)C(=O)N[C@@H](Cc1c[nH]c2ccccc12)C(=O)N[C@@H](CC(C)C)C(=O)N[C@@H](CCCNC(=N)N)C(=O)N[C@@H](CCCCN)C(=O)N[C@@H](CCCCN)C(=O)N[C@@H](CC(C)C)C(=O)N[C@@H](CCC(N)=O)C(=O)N[C@@H](CC(=O)O)C(=O)N[C@H](C(=O)N[C@@H](Cc1c[nH]cn1)C(=O)N[C@@H](CCCCNC(=O)CC[C@H](NC(=O)COCCOCCNC(=O)COCCOCCNC(=O)CC[C@H](NC(=O)CCCCCCCCCCCCCCCCC(=O)O)C(=O)O)C(=O)O)C(=O)O)C(C)C)C(C)C (stereo partly shown) [SEQ ID NO: 110]
Hillslope ([2]; FIG. 12): 3.034
S/B ([2]; FIG. 12): 14.2

CC[C@H](C)[C@H](NC(=O)[C@H](CCC(=O)O)NC(=O)[C@H](CO)NC(=O)[C@@H](NC(=O)[C@@H](N)CO)C(C)C)C(=O)N[C@@H](CCC(=O)O)C(=O)N[C@@H](CC(C)C)C(=O)N[C@@H](CCSC)C(=O)N[C@@H](Cc1c[nH]cn1)C(=O)N[C@@H](CC(N)=O)C(=O)N[C@@H](CC(C)C)C(=O)NCC(=O)N[C@@H](CCCCN)C(=O)N[C@@H](Cc1c[nH]cn1)C(=O)N[C@@H](CC(C)C)C(=O)N[C@@H](CC(N)=O)C(=O)N[C@@H](CO)C(=O)N[C@@H](CCSC)C(=O)N[C@@H](CCC(=O)O)C(=O)N[C@@H](CCCNC(=N)N)C(=O)N[C@H](C(=O)N[C@@H](CCC(=O)O)C(=O)N[C@@H](Cc1c[nH]c2ccccc12)C(=O)N[C@@H](CC(C)C)C(=O)N[C@@H](CCCNC(=N)N)C(=O)N[C@@H](CCCCN)C(=O)N[C@@H](CCCCN)C(=O)N[C@@H](CC(C)C)C(=O)N[C@@H](CCC(N)=O)C(=O)N[C@@H](CC(=O)O)C(=O)N[C@H](C(=O)N[C@@H](Cc1c[nH]cn1)C(=O)N[C@@H](CCCCNC(=O)CC[C@H](NC(=O)COCCOCCNC(=O)COCCOCCNC(=O)CC[C@H](NC(=O)CCCCCCCCCCCCCCCCC(=O)O)C(=O)O)C(=O)O)C(=O)O)C(C)C)C(C)C [SEQ ID NO: 118] (H-SVSEIELMHNLGKHLNSMERVEWLRKKLQDVHK([γGlu-AEEA-AEEA-γGlu-C18 diacid])-OH; N-terminus and C-terminus assumed)
Hillslope ([2]; FIG. 13A): 1.648
S/B ([2]; FIG. 13A): 9.4

CC[C@H](C)[C@H](NC(=O)[C@H](CCC(=O)O)NC(=O)[C@H](CO)NC(=O)[C@@H](NC(=O)[C@@H](N)CO)C(C)C)C(=O)N[C@@H](CCC(N)=O)C(=O)N[C@@H](CC(C)C)C(=O)N[C@@H](CCSC)C(=O)N[C@@H](Cc1c[nH]cn1)C(=O)N[C@@H](CC(=O)O)C(=O)N[C@@H](CC(C)C)C(=O)NCC(=O)N[C@@H](CCCCN)C(=O)N[C@@H](Cc1c[nH]cn1)C(=O)N[C@@H](CC(C)C)C(=O)N[C@@H](CC(N)=O)C(=O)N[C@@H](CO)C(=O)N[C@@H](CCSC)C(=O)N[C@@H](CCC(=O)O)C(=O)N[C@@H](CCCNC(=N)N)C(=O)N[C@H](C(=O)N[C@@H](CCC(=O)O)C(=O)N[C@@H](Cc1c[nH]c2ccccc12)C(=O)N[C@@H](CC(C)C)C(=O)N[C@@H](CCCNC(=N)N)C(=O)N[C@@H](CCCCN)C(=O)N[C@@H](CCCCN)C(=O)N[C@@H](CC(C)C)C(=O)N[C@@H](CCC(N)=O)C(=O)N[C@@H](CC(=O)O)C(=O)N[C@H](C(=O)N[C@@H](Cc1c[nH]cn1)C(=O)N[C@@H](CCCCNC(=O)CC[C@H](NC(=O)COCCOCCNC(=O)COCCOCCNC(=O)CC[C@H](NC(=O)CCCCCCCCCCCCCCCCC(=O)O)C(=O)O)C(=O)O)C(=O)O)C(C)C)C(C)C [SEQ ID NO: 120] (H-SVSEIQLMHDLGKHLNSMERVEWLRKKLQDVHK([γGlu-AEEA-AEEA-γGlu-C18 diacid])-OH)
Hillslope ([2]; FIG. 13A): 2.804
S/B ([2]; FIG. 13A): 10

CC[C@H](C)[C@H](NC(=O)[C@H](CCC(=O)O)NC(=O)[C@H](CO)NC(=O)[C@@H](NC(=O)[C@@H](N)CO)C(C)C)C(=O)N[C@@H](CCC(N)=O)C(=O)N[C@@H](CC(C)C)C(=O)N[C@@H](CCSC)C(=O)N[C@@H](Cc1c[nH]cn1)C(=O)N[C@@H](CC(N)=O)C(=O)N[C@@H](CC(C)C)C(=O)NCC(=O)N[C@@H](CCCCN)C(=O)N[C@@H](Cc1c[nH]cn1)C(=O)N[C@@H](CC(C)C)C(=O)N[C@@H](CC(=O)O)C(=O)N[C@@H](CO)C(=O)N[C@@H](CCSC)C(=O)N[C@@H](CCC(=O)O)C(=O)N[C@@H](CCCNC(=N)N)C(=O)N[C@H](C(=O)N[C@@H](CCC(=O)O)C(=O)N[C@@H](Cc1c[nH]c2ccccc12)C(=O)N[C@@H](CC(C)C)C(=O)N[C@@H](CCCNC(=N)N)C(=O)N[C@@H](CCCCN)C(=O)N[C@@H](CCCCN)C(=O)N[C@@H](CC(C)C)C(=O)N[C@@H](CCC(N)=O)C(=O)N[C@@H](CC(=O)O)C(=O)N[C@H](C(=O)N[C@@H](Cc1c[nH]cn1)C(=O)N[C@@H](CCCCNC(=O)CC[C@H](NC(=O)COCCOCCNC(=O)COCCOCCNC(=O)CC[C@H](NC(=O)CCCCCCCCCCCCCCCCC(=O)O)C(=O)O)C(=O)O)C(=O)O)C(C)C)C(C)C [SEQ ID NO: 122] (H-SVSEIQLMHNLGKHLDSMERVEWLRKKLQDVHK([γGlu-AEEA-AEEA-γGlu-C18 diacid])-OH; N-terminus and C-terminus assumed)
Hillslope ([2]; FIG. 13B): 2.522
S/B ([2]; FIG. 13B): 8.2

CC[C@H](C)[C@H](NC(=O)[C@H](CCC(=O)O)NC(=O)[C@H](CO)NC(=O)[C@@H](NC(=O)[C@@H](N)CO)C(C)C)C(=O)N[C@@H](CCC(N)=O)C(=O)N[C@@H](CC(C)C)C(=O)N[C@@H](CCSC)C(=O)N[C@@H](Cc1c[nH]cn1)C(=O)N[C@@H](CC(N)=O)C(=O)N[C@@H](CC(C)C)C(=O)NCC(=O)N[C@@H](CCCCN)C(=O)N[C@@H](Cc1c[nH]cn1)C(=O)N[C@@H](CC(C)C)C(=O)N[C@@H](CC(N)=O)C(=O)N[C@@H](CO)C(=O)N[C@@H](CCSC)C(=O)N[C@@H](CCC(=O)O)C(=O)N[C@@H](CCCNC(=N)N)C(=O)N[C@H](C(=O)N[C@@H](CCC(=O)O)C(=O)N[C@@H](Cc1c[nH]c2ccccc12)C(=O)N[C@@H](CC(C)C)C(=O)N[C@@H](CCCNC(=N)N)C(=O)N[C@@H](CCCCN)C(=O)N[C@@H](CCCCN)C(=O)N[C@@H](CC(C)C)C(=O)N[C@@H](CCC(=O)O)C(=O)N[C@@H](CC(=O)O)C(=O)N[C@H](C(=O)N[C@@H](Cc1c[nH]cn1)C(=O)N[C@@H](CCCCNC(=O)CC[C@H](NC(=O)COCCOCCNC(=O)COCCOCCNC(=O)CC[C@H](NC(=O)CCCCCCCCCCCCCCCCC(=O)O)C(=O)O)C(=O)O)C(=O)O)C(C)C)C(C)C [SEQ ID NO: 124] (H-SVSEIQLMHNLGKHLNSMERVEWLRKKLEDVHK([γGlu-AEEA-AEEA-γGlu-C18 diacid])-OH; N-terminus and C-terminus assumed)
Hillslope ([2]; FIG. 13B): 1.797
S/B ([2]; FIG. 13B): 8.9

SEQ ID NO: 109: PTH analog site-specifically modified by oxidation to methionine sulfoxide (SVSEIQLXHNLGKHLNSMERVEWLRKKLQDVHX; SITE 8 MISC_FEATURE - Xaa at position 8 is Met wherein the side chain is oxidized to form a sulfoxide; SITE 33 MISC_FEATURE - Xaa at position 33 is Lys wherein the side chain is acylated with COC16H32CO2H via a gamma Glu-(MINIPEG)2-gamma Glu spacer; listed as Homo sapiens)
S/B ([2]; FIG. 12): 1.7
